Data taken from patent publication US9113629B2, “4-amino-6-(4-substituted-phenyl)-picolinates and 6-amino-2-(4-substituted-phenyl)-pyrimidine-4-carboxylates and their use as herbicides” (DOW AGROSCIENCES LLC, priority 2013, dated 2015).
Read-outs that look alike come from different tables or passages of the source.

Key:
[1] = test system: Key Broadleaf Weed and Crop Species; test: Post-emergent Test II herbicidal activity (Table 5); format: in vivo; settings: post-emergence, 336 h, 14 days after application; for pest or weed control at 70 g/ha: application rate 70 g ai/ha; for pest or weed control at 140 g/ha: application rate 140 g ai/ha
Outline: (§1)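 Greenhouse-grown plants at first or second true leaf stage were sprayed post-emergence with compound in acetone/DMSO-based aqueous spray containing crop oil concentrate and surfactant, at 187 L/ha, highest rate plus ½× to 1/16× dilutions. After 14 d, injury was scored visually versus untreated plants, 0 (none) to 100% (complete kill).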

[2] = test system: Key Grass and Sedge Weeds as well as Grass Crops; test: Post-emergent Test II herbicidal activity (Table 6); format: in vivo; settings: post-emergence, 336 h; for pest or weed control at 70 g/ha: 70 g ai/ha; for pest or weed control at 140 g/ha: 140 g ai/ha
Outline: as §1

[3] = ABUTH: velvetleaf (Abutilon theophrasti), read-out: Visual Growth Reduction (%) 14 Days After Application, ABUTH
[4] = AMARE: redroot pigweed (Amaranthus retroflexus), read-out: Visual Growth Reduction (%) 14 Days After Application, AMARE
[5] = BRSNN: oilseed-rape, canola (Brassica napus), read-out: Visual Growth Reduction (%) 14 Days After Application, BRSNN
[6] = CHEAL: lambsquarters (Chenopodium album), read-out: Visual Growth Reduction (%) 14 Days After Application, CHEAL
[7] = EPHHL: wild poinsettia (Euphorbia heterophylla), read-out: Visual Growth Reduction (%) 14 Days After Application, EPHHL
[8] = HELAN: sunflower (Helianthus annuus), read-out: Visual Growth Reduction (%) 14 Days After Application, HELAN
[9] = VIOTR: wild pansy (Viola tricolor), read-out: Visual Growth Reduction (%) 14 Days After Application, VIOTR
[10] = CYPES: yellow nutsedge (Cyperus esculentus), read-out: Visual Growth Reduction (%) 14 Days After Application, CYPES
[11] = DIGSA: crabgrass (Digitaria sanguinalis), read-out: Visual Growth Reduction (%) 14 Days After Application, DIGSA
[12] = ECHCG: barnyardgrass (Echinochloa crus-galli), read-out: Visual Growth Reduction (%) 14 Days After Application, ECHCG
[13] = ORYSA: rice (Oryza sativa), crop, read-out: Visual Growth Reduction (%) 14 Days After Application, ORYSA
[14] = SETFA: giant foxtail (Setaria faberi), read-out: Visual Growth Reduction (%) 14 Days After Application, SETFA
[15] = SORVU: grain sorghum (Sorghum vulgare), read-out: Visual Growth Reduction (%) 14 Days After Application, SORVU
[16] = TRZSS (wheat, Triticum aestivum), crop, read-out: Visual Growth Reduction (%) 14 Days After Application, TRZSS
[17] = ZEAMX: maize, corn (Zea mays), crop, read-out: Visual Growth Reduction (%) 14 Days After Application, ZEAMX

Which pest or weed control at 70 g/ha [1, 3] does the source give for `COc1c(N)nc(-c2ccc(Br)cc2)nc1C(=O)O` [Compound 54] here?
Its pest or weed control at 70 g/ha is 85 to 94%.

And the pest or weed control at 140 g/ha [1, 3]?
The pest or weed control at 140 g/ha was 85 to 94%.

And the pest or weed control at 70 g/ha [1, 4]?
The pest or weed control at 70 g/ha was 95 to 100%.

And the pest or weed control at 140 g/ha [1, 4]?
The pest or weed control at 140 g/ha was 95 to 100%.

And the pest or weed control at 70 g/ha [1, 5]?
Its pest or weed control at 70 g/ha is 95 to 100%.

What about the pest or weed control at 140 g/ha [1, 5] of the same compound?
The pest or weed control at 140 g/ha was 95 to 100%.

What about the pest or weed control at 70 g/ha [1, 6] of the same compound?
Its pest or weed control at 70 g/ha is 95 to 100%.

And the pest or weed control at 140 g/ha [1, 6]?
The pest or weed control at 140 g/ha was 95 to 100%.

What about the pest or weed control at 70 g/ha [1, 7] of the same compound?
The pest or weed control at 70 g/ha was 95 to 100%.

What about the pest or weed control at 140 g/ha [1, 7] of the same compound?
The pest or weed control at 140 g/ha was 95 to 100%.

And the pest or weed control at 70 g/ha [1, 8]?
The pest or weed control at 70 g/ha was 85 to 94%.

What about the pest or weed control at 140 g/ha [1, 8] of the same compound?
Its pest or weed control at 140 g/ha is 95 to 100%.

What about the pest or weed control at 70 g/ha [1, 9] of the same compound?
Its pest or weed control at 70 g/ha is 30 to 44%.

What about the pest or weed control at 140 g/ha [1, 9] of the same compound?
Its pest or weed control at 140 g/ha is 45 to 59%.

And the pest or weed control at 70 g/ha [2, 10]?
Its pest or weed control at 70 g/ha is 45 to 59%.

And the pest or weed control at 140 g/ha [2, 10]?
The pest or weed control at 140 g/ha was 95 to 100%.

And the pest or weed control at 70 g/ha [2, 11]?
The pest or weed control at 70 g/ha was 0 to 29%.

What about the pest or weed control at 140 g/ha [2, 11] of the same compound?
The pest or weed control at 140 g/ha was 60 to 74%.

What about the pest or weed control at 70 g/ha [2, 12] of the same compound?
Its pest or weed control at 70 g/ha is 95 to 100%.

What about the pest or weed control at 140 g/ha [2, 12] of the same compound?
The pest or weed control at 140 g/ha was 95 to 100%.

What about the pest or weed control at 70 g/ha [2, 13] of the same compound?
The pest or weed control at 70 g/ha was 0 to 29%.

What about the pest or weed control at 140 g/ha [2, 13] of the same compound?
Its pest or weed control at 140 g/ha is 0 to 29%.

What about the pest or weed control at 70 g/ha [2, 14] of the same compound?
Its pest or weed control at 70 g/ha is 75 to 84%.

And the pest or weed control at 140 g/ha [2, 14]?
Its pest or weed control at 140 g/ha is 75 to 84%.

And the pest or weed control at 70 g/ha [2, 15]?
Its pest or weed control at 70 g/ha is 60 to 74%.

What about the pest or weed control at 140 g/ha [2, 15] of the same compound?
The pest or weed control at 140 g/ha was 75 to 84%.

And the pest or weed control at 70 g/ha [2, 16]?
Its pest or weed control at 70 g/ha is 45 to 59%.

What about the pest or weed control at 140 g/ha [2, 16] of the same compound?
The pest or weed control at 140 g/ha was 45 to 59%.

And the pest or weed control at 70 g/ha [2, 17]?
The pest or weed control at 70 g/ha was 95 to 100%.

What about the pest or weed control at 140 g/ha [2, 17] of the same compound?
The pest or weed control at 140 g/ha was 95 to 100%.
